According to patent US9084424B2, “N-benzyl heterocyclic carboxamides” (BAYER INTELLECTUAL PROPERTY GMBH, priority 2010, dated 2015):

Columns and labels:
Pyrenophora teres = test: In vivo preventive test on Pyrenophora teres (barley); conditions: preventive spray, 500 ppm of active ingredient, evaluated 7-9 days after inoculation
Description: In Vivo Preventive Test on Pyrenophora teres (Barley)
Solvent: 49 parts by weight of N,N-dimethylacetamid
Emulsifier: 1 part by weight of alkylaryl polyglycol ether
(§1) To produce a suitable preparation of active compound, 1 part by weight of active compound is mixed with the stated amounts of solvent and emulsifier, and the concentrate is diluted with water to the desired concentration.
To test for preventive activity, young plants are sprayed with the preparation of active compound at the stated rate of application. One day after this treatment, the plants are inoculated with an aqueous spore suspension of Pyrenophora teres. The plants remain for 48 hours in an incubation cabinet at 22° C. and a relative atmospheric humidity of 100%. Then the plants are placed in a greenhouse at a temperature of approximately 20° C. and a relative atmospheric humidity of approximately 80%.
The test is evaluated 7-9 days after the inoculation. 0% means an efficacy which corresponds to that of the untreated control while an efficacy of 100% means that no disease is observed.

[1] = log P by HPLC on reversed-phase column (EEC Directive 79/831 Annex V.A8); format: physicochemical; conditions: 0.1% aqueous formic acid and acetonitrile, linear gradient 10% to 90% acetonitrile
Description: In table 1, the log P values were determined in accordance with EEC Directive 79/831 Annex V.A8 by HPLC (High Performance Liquid Chromatography) on a reversed-phase column (C 18), using the method described below: Temperature: 40° C.; Mobile phases: 0.1% aqueous formic acid and acetonitrile; linear gradient from 10% acetonitrile to 90% acetonitrile. Calibration was carried out using unbranched alkan-2-ones (comprising 3 to 16 carbon atoms) with known log P values (determination of the log P values by the retention times using linear interpolation between two successive alkanones). lambda-max-values were determined using UV-spectra from 200 nm to 400 nm and the peak values of the chromatographic signals.

Alternaria solani = test: In vivo preventive test on Alternaria solani (tomato); conditions: preventive spray, 500 ppm of active ingredient, evaluated 7 days after inoculation
Description: In Vivo Preventive Test on Alternaria Solani (Tomato)
(§2) Solvent: 49 parts by weight of N,N-dimethylformamide
(§3) Emulsifier: 1 part by weight of alkylarylpolyglycolether
as §1
To test for preventive activity, young plants are sprayed with the preparation of active compound at the stated rate of application. One day after this treatment, the plants are inoculated with an aqueous spore suspension of Alternaria solani. The plants remain for one day in an incubation cabinet at approximately 22° C. and a relative atmospheric humidity of 100%. Then the plants are placed in an incubation cabinet at approximately 20° C. and a relative atmospheric humidity of 96%.
The test is evaluated 7 days after the inoculation. 0% means an efficacy which corresponds to that of the untreated control while an efficacy of 100% means that no disease is observed.

Sphaerotheca fuliginea = test: In vivo preventive test on Sphaerotheca fuliginea (cucumber); conditions: preventive spray, 500 ppm of active ingredient, evaluated 7 days after inoculation
Description: In Vivo Preventive Test on Sphaerotheca fuliginea (Cucumber)
as §2, §3, §1
To test for preventive activity, young plants are sprayed with the preparation of active compound at the stated rate of application. After the spray coating has dried on, the plants are inoculated with an aqueous spore suspension of Sphaerotheca fuliginea. The plants are then placed in a greenhouse at approximately 23° C. and a relative atmospheric humidity of approximately 70%.
The test is evaluated 7 days after the inoculation. 0% means an efficacy which corresponds to that of the untreated control, while an efficacy of 100% means that no disease is observed.

[2] = HPLC, reversed-phase C 18, 40° C.
[3] = HPLC on reversed-phase column (C 18), 40° C.

| Structure (SMILES) | Efficacy (Pyrenophora teres) | logP [1, 2] | Efficacy (Alternaria solani) | Efficacy (Sphaerotheca fuliginea) | logP [1, 3] |
| --- | --- | --- | --- | --- | --- |
| CC(NC(=O)c1c(C(F)F)nn(C)c1Cl)c1ccccc1 (racemic) [Example 1] | 95% | 2.49 | 95% | – | – |
| CC(NC(=O)c1c(C(F)F)nn(C)c1F)c1ccccc1 (racemic) [Example 2] | 94% | 2.33 | 93% | – | – |
| Cn1nc(C(F)F)c(C(=O)NC(c2ccccc2Cl)C(F)(F)F)c1F (racemic) [Example 23] | – | 3.21 | 89% | – | – |
| CC(c1ccccc1Cl)N(C)C(=O)c1c(C(F)F)nn(C)c1Cl (racemic) [Example 27] | 100% | 2.84 | 80% | – | – |
| CC(c1ccccc1Cl)N(C)C(=O)c1c(C(F)F)nn(C)c1F (racemic) [Example 28] | 100% | 2.68 | – | 85% | – |
| CC(c1ccc(Oc2ccccc2)cc1)N(C)C(=O)c1c(C(F)F)nn(C)c1Cl (racemic) [Example 153] | 80% | – | 90% | – | 3.76 |
| CC(NC(=O)c1c(C(F)F)nn(C)c1Cl)c1ccc(-c2ccccc2)cc1 (racemic) [Example 167] | 90% | – | 95% | – | 3.62 |
| C=CCN(Cc1ccccc1CC)C(=O)c1c(C(F)F)nn(C)c1F [Example 16] | 100% | 3.36 | 80% | – | – |
| Cn1nc(C(F)F)c(C(=O)NC(C)(C)c2ccccc2Cl)c1Cl [Example 22] | – | 3.15 | – | 80% | – |
| Cn1nc(C(F)F)c(C(=O)NC(c2ccc(Cl)cc2Cl)C(F)(F)F)c1Cl (stereo not drawn) [Example 32] | – | 3.89 | – | 95% | – |
| Cn1nc(C(F)F)c(C(=O)NC(C)(C)c2ccc(Cl)cc2Cl)c1Cl [Example 35] | – | 3.89 | – | 86% | – |
| Cn1nc(C(F)F)c(C(=O)NCc2ccc(Cl)cc2Cl)c1F [Example 37] | – | 4.19 | 94% | – | – |
| Cn1nc(C(F)F)c(C(=O)NC2(c3ccc(Cl)cc3Cl)CC2)c1Cl [Example 41] | – | 3.89 | 80% | – | – |
| CON(C(=O)c1c(C(F)F)nn(C)c1Cl)C(C)c1ccc(Cl)cc1Cl (stereo not drawn) [Example 46] | 100% | 3.81 | 100% | – | – |
| Cn1nc(C(F)F)c(C(=O)NC(C)(C)c2cc(Cl)ccc2Cl)c1Cl [Example 49] | – | 3.89 | – | 94% | – |
| Cn1nc(C(F)F)c(C(=O)NC2(c3cc(Cl)ccc3Cl)CC2)c1F [Example 51] | 80% | 4.19 | 94% | – | – |
| Cn1nc(C(F)F)c(C(=O)NC(C)(C)c2cc(Cl)ccc2Cl)c1F [Example 52] | – | 3.89 | – | 80% | – |
| Cn1nc(C(F)F)c(C(=O)NCc2cc(Cl)ccc2Cl)c1F [Example 54] | – | 4.19 | 89% | – | – |
| Cn1nc(C(F)F)c(C(=O)NCc2ccccc2C(F)(F)F)c1F [Example 81] | – | 2.76 | 90% | – | – |
| Cn1nc(C(F)F)c(C(=O)NCc2ccccc2C(F)(F)F)c1Cl [Example 83] | – | 2.96 | 90% | – | – |
| CC(NC(=S)c1c(C(F)F)nn(C)c1Cl)c1ccccc1C(F)(F)F (stereo not drawn) [Example 85] | 100% | 3.55 | 95% | – | – |
| Cn1nc(C(F)F)c(C(=O)N(CC#N)Cc2c(Cl)cccc2C(F)(F)F)c1F [Example 88] | – | 2.68 | 80% | – | – |
| CN(Cc1c(Cl)cccc1C(F)(F)F)C(=O)c1c(C(F)F)nn(C)c1F [Example 89] | 100% | 2.93 | 95% | – | – |
| CN(Cc1ccccc1Br)C(=O)c1c(C(F)F)nn(C)c1F [Example 105] | 94% | – | 95% | – | 2.71 |
| Cn1nc(C(F)F)c(C(=O)NCc2ccccc2SC(F)(F)F)c1F [Example 107] | 100% | – | 80% | – | 3.11 |

| Structure (SMILES) | Efficacy (Pyrenophora teres) | logP [1, 2] | Efficacy (Alternaria solani) | Efficacy (Sphaerotheca fuliginea) | logP [1, 3] |
| --- | --- | --- | --- | --- | --- |
| Cn1nc(C(F)F)c(C(=O)NCc2ccc3c(c2)CCCC3)c1F [Example 110] | 80% | – | 94% | – | 3.25 |
| Cn1nc(C(F)F)c(C(=O)NCc2cc(Cl)cc(Cl)c2)c1Cl [Example 113] | 80% | – | 90% | – | 3.23 |
| Cn1nc(C(F)F)c(C(=O)NCc2cc(Cl)cc(Cl)c2)c1F [Example 115] | 90% | – | 94% | – | 3.09 |
| Cn1nc(C(F)F)c(C(=O)NC2(c3ccc(C(F)(F)F)cc3)CCCC2)c1F [Example 121] | 94% | – | 70% | – | 3.72 |
| Cn1nc(C(F)F)c(C(=O)NCc2ccc(Cl)cc2)c1F [Example 127] | – | – | 90% | – | 2.55 |
| Cn1nc(C(F)F)c(C(=O)NC2CCc3ccccc32)c1Cl (stereo not drawn) [Example 137] | – | – | 89% | – | 2.73 |
| Cn1nc(C(F)F)c(C(=O)NC2CCc3ccccc32)c1F (stereo not drawn) [Example 138] | – | – | 94% | – | 2.57 |
| Cn1nc(C(F)F)c(C(=O)NCc2ccccc2Oc2ccccc2)c1F [Example 144] | – | – | 89% | – | 3.25 |
| Cn1nc(C(F)F)c(C(=O)NCc2cccc(Oc3ccccc3)c2)c1F [Example 145] | – | – | 90% | – | 3.23 |
| Cn1nc(C(F)F)c(C(=O)N(Cc2cccc(Oc3ccccc3)c2)C2COC2)c1Cl [Example 147] | – | – | 70% | – | 3.19 |
| Cn1nc(C(F)F)c(C(=O)N(Cc2cccc(Oc3ccccc3)c2)C2COC2)c1F [Example 148] | 95% | – | 80% | – | 3.06 |
| CN(Cc1cccc(Oc2ccccc2)c1)C(=O)c1c(C(F)F)nn(C)c1Cl [Example 149] | 70% | – | – | – | 3.46 |
| CN(Cc1cccc(Oc2ccccc2)c1)C(=O)c1c(C(F)F)nn(C)c1F [Example 150] | 100% | – | 70% | – | 3.31 |
| Cn1nc(C(F)F)c(C(=O)NCc2ccc(Oc3ccccc3)cc2)c1F [Example 152] | 95% | – | 89% | – | 3.23 |
| CN(Cc1ccc(Oc2ccccc2)cc1)C(=O)c1c(C(F)F)nn(C)c1F [Example 156] | 90% | – | 89% | – | 3.33 |
| CN(Cc1ccc(Oc2ccc(Cl)cc2)cc1)C(=O)c1c(C(F)F)nn(C)c1Cl [Example 157] | 90% | – | – | – | 3.96 |
| CN(Cc1ccc(Oc2ccc(Cl)cc2)cc1)C(=O)c1c(C(F)F)nn(C)c1F [Example 158] | 100% | – | 95% | – | 3.81 |
| Cn1nc(C(F)F)c(C(=O)NCc2ccc(OCc3ccccc3)cc2)c1F [Example 161] | 90% | – | 94% | – | 3.23 |
| Cn1nc(C(F)F)c(C(=O)NCc2cccc(-c3ccccc3)c2)c1F [Example 166] | 80% | – | 78% | – | 3.19 |
| Cn1nc(C(F)F)c(C(=O)NCc2ccc(-c3ccccc3)cc2)c1F [Example 170] | 95% | – | 94% | – | 3.21 |
| CN(Cc1cc(Cl)ccn1)C(=O)c1c(C(F)F)nn(C)c1F [Example 174] | 75% | – | – | – | 1.84 |
| Cn1nc(C(F)F)c(C(=O)NCc2ncc(C(F)(F)F)cc2Cl)c1F [Example 176] | – | – | 70% | – | 2.76 |
| CON(Cc1ncc(Cl)cc1Cl)C(=O)c1c(C(F)F)nn(C)c1Cl [Example 182] | 95% | – | – | – | 2.88 |
| CC(c1ncc(Cl)cc1Cl)N(C(=O)c1c(C(F)F)nn(C)c1Cl)C1CCCC1 (stereo not drawn) [Example 188] | 95% | – | – | – | 4.67 |
